Test results published in US20220183294A1, “PESTICIDALLY ACTIVE AZOLE AMIDE COMPOUNDS” (SYNGENTA CROP PROTECTION AG, priority 2019, published 2022).

Legend:
Format in all cases: in vivo
[1] = system: Plutella xylostella (Diamond back moth); assay: Example B5: Plutella xylostella (Diamond back moth), artificial diet, 24-well; settings: 192 h, application rate 200 ppm, eggs, 8 days after infestation, read-out: control in at least one of the two categories (mortality or growth inhibition)
Description: Example B5: Plutella xylostella (Diamond back moth)
24-well microtiter plates with artificial diet were treated with aqueous test solutions prepared from 10′000 ppm DMSO stock solutions by pipetting. After drying, Plutella eggs were pipetted through a plastic stencil onto a gel blotting paper and the plate was closed with it. The samples were assessed for mortality and growth inhibition in comparison to untreated samples 8 days after infestation.
(§1) The following compounds gave an effect of at least 80% control in at least one of the two categories (mortality or growth inhibition) at an application rate of 200 ppm: […]

[2] = system: Chilo suppressalis (Striped rice stemborer); assay: Example B4: Chilo suppressalis (Striped rice stemborer), artificial diet; settings: 144 h, application rate 200 ppm, L2 larvae, 6 days after infestation, read-out: control in at least one of the three categories (mortality, anti-feedant effect, or growth inhibition)
Description: Example B4: Chilo suppressalis (Striped rice stemborer) 24-well microtiter plates with artificial diet were treated with aqueous test solutions prepared from 10′000 ppm DMSO stock solutions by pipetting. After drying, the plates were infested with L2 larvae (6-8 per well). The samples were assessed for mortality, anti-feeding effect, and growth inhibition in comparison to untreated samples 6 days after infestation. Control of Chilo suppressalis by a test sample is given when at least one of the categories mortality, anti-feedant effect, and growth inhibition is higher than the untreated sample.

[3] = system: Diabrotica balteata (Corn root worm); assay: Example B1: Diabrotica balteata (Corn root worm), sprayed maize sprouts; settings: 96 h, application rate 200 ppm, L2 larvae, 4 days after infestation, read-out: control in at least one of the two categories (mortality or growth inhibition)
Description: Example B1: Diabrotica balteata (Corn root worm)
Maize sprouts placed onto an agar layer in 24-well microtiter plates were treated with aqueous test solutions prepared from 10′000 ppm DMSO stock solutions by spraying. After drying, the plates were infested with L2 larvae (6 to 10 per well). The samples were assessed for mortality and growth inhibition in comparison to untreated samples 4 days after infestation.
as §1

[4] = system: Plutella xylostella (Diamondback Moth); assay: Example B13: Plutella xylostella (Diamondback Moth), artificial diet, 96-well; settings: 216 h, application rate 500 ppm, eggs/L1 larvae, 9 days after infestation
Description: Example B13: Plutella xylostella (Diamondback Moth)
96-well microtiter plates containing artificial diet were treated with aqueous test solutions, prepared from 10′000 ppm DMSO stock solutions, by a liquid handling robot. After drying, eggs (-30 per well) were infested onto a netted lid which was suspended above the diet. The eggs hatch and L1 larvae move down to the diet. The samples were assessed for mortality 9 days after infestation.
The following compounds gave an effect of at least 80% mortality at an application rate of 500 ppm: […]

[5] = system: Spodoptera littoralis (Egyptian cotton leaf worm); assay: Example B10: Spodoptera littoralis (Egyptian cotton leaf worm), uptake by lettuce roots from agar; settings: 144 h, test rate 12.5 ppm, eggs, 6 days after infestation, read-out: control in at least one of the three categories (mortality, anti-feeding, or growth inhibition)
Source text: Example B10: Spodoptera littoralis (Egyptian cotton leaf worm)
Test compounds were applied by pipette from 10′000 ppm DMSO stock solutions into 24-well plates and mixed with agar. Lettuce seeds were placed onto the agar and the multi well plate was closed by another plate which contained also agar. After 7 days the compound was absorbed by the roots and the lettuce grew into the lid plate. The lettuce leaves were then cut off into the lid plate. Spodoptera eggs were pipetted through a plastic stencil onto a humid gel blotting paper and the lid plate was closed with it. The samples were assessed for mortality, anti-feedant effect and growth inhibition in comparison to untreated samples 6 days after infestation.
The following compounds gave an effect of at least 80% control in at least one of the three categories (mortality, anti-feeding, or growth inhibition) at a test rate of 12.5 ppm: […]

[6] = system: Spodoptera littoralis (Egyptian cotton leaf worm); assay: Example B9: Spodoptera littoralis (Egyptian cotton leaf worm), sprayed cotton leaf discs; settings: foliar, 72 h, application rate 200 ppm, L1 larvae, 3 days after infestation, read-out: control in at least one of the three categories (mortality, anti-feedant effect, or growth inhibition)
Description: Example B9: Spodoptera littoralis (Egyptian cotton leaf worm)
Cotton leaf discs were placed onto agar in 24-well microtiter plates and sprayed with aqueous test solutions prepared from 10′000 ppm DMSO stock solutions. After drying the leaf discs were infested with five L1 larvae. The samples were assessed for mortality, anti-feeding effect, and growth inhibition in comparison to untreated samples 3 days after infestation. Control of Spodoptera littoralis by a test sample is given when at least one of the categories mortality, anti-feedant effect, and growth inhibition is higher than the untreated sample.

[7] = system: Frankliniella occidentalis (Western flower thrips); assay: Example B3: Frankliniella occidentalis (Western flower thrips): Feeding/contact activity; settings: 168 h, application rate 200 ppm, population of mixed ages, 7 days after infestation
Description: Example B3: Frankliniella occidentalis (Western flower thrips):Feeding/contact activity
Sunflower leaf discs were placed on agar in 24-well microtiter plates and sprayed with aqueous test solutions prepared from […] stock solutions. After drying the leaf discs were infested with a Frankliniella population of mixed ages. The samples were assessed for mortality 7 days after infestation.

[8] = system: Myzus persicae (Green peach aphid); assay: Example B8: Myzus persicae (Green peach aphid): Intrinsic activity; settings: 120 h, test rate 12 ppm, 5 days after infestation
Source text: Example B8: Myzus persicae (Green peach aphid): Intrinsic activity
Test compounds prepared from 10′000 ppm DMSO stock solutions were applied by pipette into 24-well microtiter plates and mixed with sucrose solution. The plates were closed with a stretched Parafilm. A plastic stencil with 24 holes was placed onto the plate and infested pea seedlings were placed directly on the Parafilm. The infested plate was closed with a gel blotting paper and another plastic stencil and then turned upside down. The samples were assessed for mortality 5 days after infestation.

[9] = system: Myzus persicae (Green peach aphid); assay: Example B12: Myzus persicae (Green Peach Aphid), 96-well sucrose solution; settings: 120 h, application rate 50 ppm, 5 days after infestation
Source text: Example B12: Myzus persicae (Green Peach Aphid)
Test compounds prepared from 10′000 ppm DMSO stock solutions were applied by a liquid handling robot into 96-well microtiter plates and mixed with a sucrose solution. Parafilm was stretched over the 96-well microtiter plate and a plastic stencil with 96 holes was placed onto the plate. Aphids were sieved into the wells directly onto the Parafilm. The infested plates were closed with a gel blotting card and a second plastic stencil and then turned upside down. The samples were assessed for mortality 5 days after infestation.

C[C@H](NC(=O)c1cc(C(F)(F)F)nc(C2(C#N)CC2)c1)c1ncnn1-c1ccc(C#N)cn1 [P1, 2-(1-cyanocyclopropyl)-N-[(1S)-1-[2-(5-cyano-2-pyridyl)-1,2,4-triazol-3-yl]ethyl]-6-(trifluoromethyl)pyridine-4-carboxamide]
≥ 80%: percent control (mortality or growth inhibition) at 200 ppm [1] | percent control (mortality, anti-feedant effect or growth inhibition) at 200 ppm [2] | percent control (mortality or growth inhibition) at 200 ppm [3] | mortality at 500 ppm [4] | percent control (mortality, anti-feeding or growth inhibition) at 12.5 ppm [5] | percent control (mortality, anti-feedant effect or growth inhibition) at 200 ppm [6]

CC(NC(=O)c1cc(C(F)(F)F)cc(S(=O)(=O)C(F)(F)F)c1)c1ncnn1-c1ccc(C#N)cn1 (centres unmarked) [P5, N-[1-[2-(5-cyano-2-pyridyl)-1,2,4-triazol-3-yl]ethyl]-3-(trifluoromethyl)-5-(trifluoromethylsulfonyl)benzamide]
≥ 80%: percent control (mortality or growth inhibition) at 200 ppm [1] | mortality at 200 ppm [7] | percent control (mortality, anti-feedant effect or growth inhibition) at 200 ppm [2] | percent control (mortality or growth inhibition) at 200 ppm [3] | mortality at 500 ppm [4] | percent control (mortality, anti-feeding or growth inhibition) at 12.5 ppm [5] | percent control (mortality, anti-feedant effect or growth inhibition) at 200 ppm [6]

C[C@H](NC(=O)c1cc(C(F)(F)F)cc(S(=O)(=O)C(F)(F)F)c1)c1ncnn1-c1ccc(C#N)cn1 [P2, N-[(1S)-1-[2-(5-cyano-2-pyridyl)-1,2,4-triazol-3-yl]ethyl]-3-(trifluoromethyl)-5-(trifluoromethylsulfonyl) benzamide]
≥ 80%: percent control (mortality or growth inhibition) at 200 ppm [1] | percent control (mortality, anti-feedant effect or growth inhibition) at 200 ppm [2] | percent control (mortality or growth inhibition) at 200 ppm [3] | mortality at 500 ppm [4] | percent control (mortality, anti-feeding or growth inhibition) at 12.5 ppm [5] | percent control (mortality, anti-feedant effect or growth inhibition) at 200 ppm [6]

CC(NC(=O)c1cc(C2CC2)nc(C(F)(F)F)c1)c1ncnn1-c1ncc(OCC(F)F)cn1 (centres unmarked) [P22, 2-cyclopropyl-N-[1-[2-[5-(2,2-difluoroethoxy)pyrimidin-2-yl]-1,2,4-triazol-3-yl]ethyl]-6-(trifluoromethyl)pyridine-4-carboxamide]
≥ 80%: mortality at 12 ppm [8] | percent control (mortality or growth inhibition) at 200 ppm [1] | percent control (mortality, anti-feedant effect or growth inhibition) at 200 ppm [2] | percent control (mortality or growth inhibition) at 200 ppm [3] | percent control (mortality, anti-feedant effect or growth inhibition) at 200 ppm [6]

C[C@H](NC(=O)c1cc(C(F)(F)F)cc(C(F)(F)C2CC2)c1)c1ncnn1-c1ncc(OCC(F)F)cn1 [P7, 3-[cyclopropyl(difluoro)methyl]-N-[(1S)-1-[2-[5-(2,2-difluoroethoxy)pyrimidin-2-yl]-1,2,4-triazol-3-yl]ethyl]-5-(trifluoromethyl) benzamide]
≥ 80%: percent control (mortality or growth inhibition) at 200 ppm [1] | percent control (mortality, anti-feedant effect or growth inhibition) at 200 ppm [2] | mortality at 500 ppm [4] | mortality at 50 ppm [9] | percent control (mortality, anti-feedant effect or growth inhibition) at 200 ppm [6]
